Patent US20160304556A1, “[…] ACTIVE COMPOUNDS AND THEIR METHODS OF USE” (AGIOS PHARMACEUTICALS, INC, priority 2012, published 2016)

Legend:
IDH1 R132H = IDH1 R132H (Homo sapiens, UniProt O75874, R132H); test: In vitro NADPH depletion assay for IDH1m R132H inhibitors; format: biochemical; details: enzyme, diaphorase/resazurin readout, read-out: IDH R132H IC50
How it was run: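 IDH1-R132H homodimer […] was preincubated with compound for 60 min at room temperature in 20 mM Tris-Cl pH 7.5, 150 mM NaCl, 10 mM MgCl2, 0.05% BSA, 2 mM b-mercaptoethanol. Substrate mix (NADPH, 5 mM alpha-ketoglutarate) then reacted for 90 min. Remaining NADPH was read by diaphorase/resazurin fluorescence at Ex544/Em590.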

HT1080 cells = test: Cellular assay, inhibition of 2-HG production (LC-MS) in HT1080 cells; format: cell-based; details: Homo sapiens, HT-1080, 48 hours, LC-MS of media
Procedure: Cells (HT1080 or U87MG) are grown in T125 flasks in DMEM containing 10% FBS, 1× penicillin/streptomycin and 500 ug/mL G418 (present in U87MG cells only). They are harvested by trypsin and seeded into 96 well white bottom plates at a density of 5000 cell/well in 100 μl/well in DMEM with 10% FBS. No cells are placed in columns 1 and 12. Cells are incubated overnight at 37° C. in 5% CO2. The next day test compounds are made up at 2× the final concentration and 100 μl are added to each cell well. The final concentration of DMSO is 0.2% and the DMSO control wells are plated in row G. The plates are then placed in the incubator for 48 hours. At 48 hours, 100 μl of media is removed from each well and analyzed by LC-MS for 2-HG concentrations. The cell plate is placed back in the incubator for another 24 hours. At 72 hours post compound addition, 10 mL/plate of Promega Cell Titer Glo reagent is thawed and mixed. The cell plate is removed from the incubator and allowed to equilibrate to room temperature. Then 100 μl of Promega Cell Titer Glo reagent is added to each well of media. The cell plate is then placed on an orbital shaker for 10 minutes and then allowed to sit at room temperature for 20 minutes. The plate is then read for luminescence with an integration time of 500 ms.
The IC50 for inhibition of 2-HG production (concentration of test compound to reduce 2HG production by 50% compared to control) in these two cell lines for various compounds of formula I is set forth in Table 2 above.

IDH1 R132C = IDH1 R132C (Homo sapiens, UniProt O75874, R132C); test: In vitro NADPH depletion assay for IDH1m R132C inhibitors; format: biochemical; details: enzyme, diaphorase/resazurin readout, read-out: IDH R132C IC50
Sequence of IDH1 R132C (O75874 whole entry R132C): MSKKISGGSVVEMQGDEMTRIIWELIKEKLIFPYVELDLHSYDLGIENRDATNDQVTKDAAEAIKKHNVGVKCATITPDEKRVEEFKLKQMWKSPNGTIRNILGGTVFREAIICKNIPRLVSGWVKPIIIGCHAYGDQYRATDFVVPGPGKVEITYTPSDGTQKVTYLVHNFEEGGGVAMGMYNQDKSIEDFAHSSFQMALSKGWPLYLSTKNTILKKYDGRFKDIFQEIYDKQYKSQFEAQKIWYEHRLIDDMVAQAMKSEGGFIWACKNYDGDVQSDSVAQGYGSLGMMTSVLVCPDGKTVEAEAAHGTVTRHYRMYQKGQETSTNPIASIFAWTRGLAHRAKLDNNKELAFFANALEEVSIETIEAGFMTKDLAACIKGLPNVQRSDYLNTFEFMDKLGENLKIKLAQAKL
Procedure: A test compound is prepared as 10 mM stock in DMSO and diluted to 50× final concentration in DMSO, for a 50 μl reaction mixture. IDH enzyme activity converting alpha-ketoglutarate to 2-hydroxyglutaric acid is measured using a NADPH depletion assay. In the assay the remaining cofactor is measured at the end of the reaction with the addition of a catalytic excess of diaphorase and resazurin, to generate a fluorescent signal in proportion to the amount of NADPH remaining. IDH1-R132 homodimer enzyme is diluted to […] in 40 μl of Assay Buffer(150 mM NaCl, 20 mM Tris-Cl pH 7.5, 10 mM MgCl2, 0.05% BSA, 2 mM b-mercaptoethanol); 1 μl of test compound dilution in DMSO is added and the mixture is incubated for 60 minutes at room temperature. The reaction is started with the addition of 10 μl of Substrate Mix ([…], 5 mM alpha-ketoglutarate, in Assay Buffer) and the mixture is incubated for 90 minutes at room temperature. The reaction is terminated with the addition of 25 μl of Detection Buffer (36 μg/ml diaphorase, […], in 1× Assay Buffer), and is incubated for 1 minute before reading on a SpectraMax platereader at Ex544/Em590.
Compounds are assayed for their activity against IDH1 R132C following the same assay as above with the following modifications: Assay Buffer is (50 mM potassium phosphate, pH 6.5; 40 mM sodium carbonate, 5 mM MgCl2, 10% glycerol, 2 mM b-mercaptoethanol, and 0.03% BSA). The concentration of NADPH and alpha-ketoglutarate in the Substrate Buffer is 20 μM and 1 mM, respectively.
Representative compounds of formula I set forth in Table 1 were tested in this assay and the results are set forth below in Table 3.

Sequence of IDH1 R132H (O75874 whole entry R132H): as the sequence (O75874 whole entry R132C) above, with C132H counted along it

| IC50 (IDH1 R132H) [nM] | IC50 (HT1080 cells) [nM] | IC50 (IDH1 R132C) [nM] | Compound |
| --- | --- | --- | --- |
| 100 to 500 | 500 to 1000 | 100 to 500 | COC(=O)NCC(=O)N(c1cccc(F)c1)[C@H](C(=O)N[C@@H]1CCCCC1(F)F)c1ccccc1Cl [Compound 83] |
| 100 to 500 | 1000 to 2000 | 100 to 500 | CC(C)OC(=O)NCC(=O)N(c1cccc(F)c1)C(C(=O)NC1CC(F)(F)C1)c1ccccc1Cl (centres unmarked) [Compound 74] |
| 100 to 500 | 500 to 1000 | 100 to 500 | COC(=O)N1[C@H](C(=O)N(c2cccc(F)c2)[C@H](C(=O)NC2CC(F)(F)C2)c2ccccc2Cl)CCC1(C)C (single isomer, unassigned) [Compound 115] |
| ≤ 100 | 100 to 500 | ≤ 100 | COC(=O)N1C[C@H](OCCO)C[C@H]1C(=O)N(c1cccc(F)c1)[C@H](C(=O)NC1CC(F)(F)C1)c1ccccc1Cl [Compound 90] |
| 100 to 500 | 1000 to 2000 | 100 to 500 | COC(=O)N[C@@H](CO)C(=O)N(c1cccc(F)c1)C(C(=O)NC1CCC(F)(F)CC1)c1ccccc1Cl (some centres unmarked) [Compound 101] |
| 100 to 500 | 500 to 1000 | 100 to 500 | COC(=O)NCC(=O)N(c1cccc(F)c1)C(C(=O)NC1CC(F)(F)C1)c1ccccc1Cl (centres unmarked) [Compound 73, methyl 2-((1-(2-chlorophenyl)-2-(3,3-difluorocyclobutylamino)-2-oxoethyl)(3-fluorophenyl)amino)-2-oxoethylcarbamate] |
| ≤ 100 | 100 to 500 | ≤ 100 | O=C(NC1CCC(F)(F)CC1)C(c1ccccc1Cl)N(C(=O)CNc1ncccc1F)c1cccc(F)c1 (centres unmarked) [Compound 48] |
| ≤ 100 | 500 to 1000 | 100 to 500 | COC(=O)N[C@@H](CO)C(=O)N(c1cccc(F)c1)[C@@H](C(=O)NC1CCCCC1)c1ccccc1Cl [Compound 85] |
| 100 to 500 | 100 to 500 | ≤ 100 | O=C(NC1CC(F)(F)C1)[C@@H](c1ccccc1Cl)N(C(=O)[C@H](CO)Nc1ncccn1)c1cccc(F)c1 [Compound 108] |
| 100 to 500 | 500 to 1000 | 100 to 500 | CCOC(=O)NCC(=O)N(c1cccc(F)c1)C(C(=O)NC1CC(F)(F)C1)c1ccccc1Cl (centres unmarked) [Compound 75] |
| 100 to 500 | 100 to 500 | 100 to 500 | COC(=O)N1CCC[C@H]1C(=O)N(c1cccc(F)c1)[C@H](C(=O)NC1CC(F)(F)C1)c1c(Cl)cccc1Cl [Compound 66] |
| ≤ 100 | ≤ 100 | ≤ 100 | COCCO[C@@H]1C[C@@H](C(=O)N(c2cccc(F)c2)[C@H](C(=O)NC2CC(F)(F)C2)c2ccccc2Cl)N(C(=O)OC)C1 [Compound 79, (2S,4R)-methyl 2-(((S)-1-(2-chlorophenyl)-2-((3,3-difluoro-cyclobutyl)amino)-2-oxoethyl)(3-fluorophenyl)carbamoyl)-4-(2-methoxyethoxy)pyrrolidine-1-carboxylate] |
| ≤ 100 | 100 to 500 | ≤ 100 | COC(=O)N1C[C@@H](F)C[C@H]1C(=O)N(c1cccc(F)c1)[C@H](C(=O)NC1CC(F)(F)C1)c1ccccc1Cl [Compound 70] |
| ≤ 100 | 100 to 500 | ≤ 100 | C[C@H]1CC[C@@H](C(=O)N(c2cccc(F)c2)[C@@H](C(=O)NC2CCC(F)(F)CC2)c2ccccc2Cl)N1c1ncccn1 [Compound 110, (2S,5S)—N—((R)-1-(2-chlorophenyl)-2-(4,4-difluorocyclohexylamino)-2-oxoethyl)-N-(3-fluorophenyl)-5-methyl-1-(pyrimidin-2-yl)pyrrolidine-2-carboxamide] |
| ≤ 100 | 100 to 500 | ≤ 100 | COC(=O)NCC(=O)N(c1cccc(F)c1)C(C(=O)NC1CCC(F)(F)CC1)c1ccccc1Cl (centres unmarked) [Compound 92] |
| 100 to 500 | 1000 to 2000 | 100 to 500 | CC(C)(C)OC(=O)NCC(=O)N(c1cccc(F)c1)C(C(=O)NC1CCC(F)(F)CC1)c1ccccc1Cl (centres unmarked) [Compound 93] |
| – | ≤ 100 | ≤ 100 | COC(=O)N1CCOC[C@H]1C(=O)N(c1cccc(F)c1)[C@H](C(=O)NC1CCCCC1)c1ccccc1C [Compound 23] |
| ≤ 100 | 100 to 500 | ≤ 100 | C[C@H]1CC[C@@H](C(=O)N(c2cccc(F)c2)[C@H](C(=O)NC2CCC(F)(F)CC2)c2ccccc2Cl)N1c1ncccn1 [Compound 111, (2S,5S)—N—((S)-1-(2-chlorophenyl)-2-(4,4-difluorocyclohexylamino)-2-oxoethyl)-N-(3-fluorophenyl)-5-methyl-1-(pyrimidin-2-yl)pyrrolidine-2-carboxamide] |
| 100 to 500 | 100 to 500 | 100 to 500 | COC(=O)NCC(=O)N(c1cccc(F)c1)C(C(=O)NC1CCC(F)CC1)c1ccccc1Cl (centres unmarked) [Compound 81] |
| ≤ 100 | ≤ 100 | ≤ 100 | O=C(NC1CC(F)(F)C1)[C@H](c1ccccc1Cl)N(C(=O)[C@@H]1CCCN1c1ncccn1)c1cccc(F)c1 [Compound 69, (2S)—N—((S)-(3,3-difluorocyclobutylcarbamoyl)(2-chlorophenyl)methyl)-N-(3-fluorophenyl)-1-(pyrimidin-2-yl)pyrrolidine-2-carboxamide] |
| ≤ 100 | ≤ 100 | ≤ 100 | O=C(NC1CC(F)(F)C1)[C@H](c1ccccc1Cl)N(C(=O)[C@H](CO)Nc1ncccn1)c1cccc(F)c1 [Compound 109] |
| ≤ 100 | 100 to 500 | ≤ 100 | O=C(NC1CC(F)(F)C1)C(c1ccccc1Cl)N(C(=O)Cn1cnc(Cl)c1Cl)c1cccc(F)c1 (centres unmarked) [Compound 35] |
| ≤ 100 | 100 to 500 | ≤ 100 | COC(=O)N1CCN(C(C)=O)C[C@H]1C(=O)N(c1cccc(F)c1)[C@H](C(=O)NC1CC(F)(F)C1)c1ccccc1Cl [Compound 68, (S)-Methyl 4-acetyl-2-(((S)-1-(2-chlorophenyl)-2-(3,3-difluorocyclobutylamino)-2-oxoethyl) (3-fluorophenyl)carbamoyl)piperazine-1-carboxylate] |
| 100 to 500 | 500 to 1000 | 100 to 500 | COC(=O)NCC(=O)N(c1cccc(F)c1)[C@H](C(=O)N[C@H]1CCC(F)(F)C1)c1ccccc1Cl [Compound 97] |
| ≤ 100 | 100 to 500 | ≤ 100 | C[C@H]1CC[C@@H](C(=O)N(c2cccc(F)c2)[C@H](C(=O)NC2CC(F)(F)C2)c2ccccc2Cl)N1c1ncccn1 [Compound 113, (2S,5S)—N—((S)-1-(2-chlorophenyl)-2-(3,3-difluorocyclobutylamino)-2-oxoethyl)-N-(3-fluorophenyl)-5-methyl-1-(pyrimidin-2-yl)pyrrolidine-2-carboxamide] |
| ≤ 100 | 100 to 500 | ≤ 100 | O=C(NC1CC(F)(F)C1)C(c1ccccc1Cl)N(C(=O)Cc1cccnc1)c1cccc(F)c1 (centres unmarked) [Compound 86] |
| ≤ 100 | 100 to 500 | ≤ 100 | Cc1nc(Cl)c(Cl)n1CC(=O)N(c1cccc(F)c1)C(C(=O)NC1CC(F)(F)C1)c1ccccc1Cl (centres unmarked) [Compound 87] |
| ≤ 100 | 100 to 500 | 100 to 500 | COC(=O)N1CC[C@H](O)[C@H]1C(=O)N(c1cccc(F)c1)[C@H](C(=O)NC1CC(F)(F)C1)c1ccccc1Cl [Compound 91] |
| ≤ 100 | 500 to 1000 | 100 to 500 | COC(=O)N(C)CC(=O)N(c1cccc(F)c1)C(C(=O)NC1CC(F)(F)C1)c1ccccc1Cl (centres unmarked) [Compound 96] |
